Measurements taken from patent US9173938B2, “Combination of a purine-based CDK inhibitor with a tyrosine kinase inhibitor and use thereof in the treatment of proliferative disorders” (Cyclacel Limited, priority 2007, dated 2015).
pIC50: −log10 of the molar value.

Legend:
H358 cells [1] = experiment: Cell growth / drug combination analysis (alamar blue, Calcusyn); type: cell-based; conditions: Homo sapiens, NCI-H358
A549 cells = experiment: Cell growth (alamar blue); type: cell-based; conditions: Homo sapiens
H460 cells = experiment: Cell growth (alamar blue); type: cell-based; conditions: Homo sapiens, NCI-H460
phospho-ERK = experiment: Western blot of H358 cell lysates; type: cell-based; conditions: H358 cells, 72 h
cyclin D1 [2] = experiment: Western blot of H358 cell lysates; type: cell-based; conditions: H358 cells, 72 h
cleaved PARP = experiment: Western blot for cleaved PARP (apoptosis marker) in H358 cells; type: cell-based; conditions: 72 h, range of concentrations
EGFR = conditions: H358 cells, 72 h, western blot
phospho-Tyr1068 EGFR = conditions: H358 cells, 72 h, western blot
H292 xenograft = H292 xenograft model; type: in vivo, nude mice; conditions: seliciclib 50 mg bid, [1] 40 mg bid days 1-5 and 11-15; erlotinib 100 mg qd po, 50 mg from day 11
H292 cells = experiment: Drug combination analysis (Alamar blue, Calcusyn); conditions: 72 hours
SkBr3 cells = experiment: Cell growth / drug combination analysis (alamar blue, Calcusyn); type: cell-based; conditions: for Calcusyn combination value at 50% effective dose: in combination with Lapatinib
H358 xenograft = conditions: day 49, erlotinib 100 mg/kg po daily, 28 days; for mean tumour volume: seliciclib 50 mg/kg ip twice daily 5 days on/2 off
MCF7 cells = experiment: Cell growth (alamar blue); type: cell-based
HER2 = experiment: Western blot of SkBr3 cell lysates; type: cell-based; conditions: SkBr3 cells, 24 h
cyclin D1 [3] = experiment: Western blot of SkBr3 cell lysates; type: cell-based; conditions: SkBr3 cells, 24 h
H358 cells [4] = experiment: Flow cytometry of DNA content (propidium iodide); conditions: 1×IC50, 72 h
Description: (B) The DNA content of the cells was analysed by flow cytometry after propidium iodide staining. Sub-G1 cells are those that contain less DNA than normal diploid cells. Results are representative of two independent experiments.
H358 or H1650 cells were seeded in 10 cm plates at approximately 5×10^5 cells/plate and left to settle overnight. […] After 72 h treatment, cells were harvested by trypsinisation, washed twice in PBS and then fixed overnight in 70% (v/v) ethanol at −20° C. Cells were washed twice in PBS containing 1% (w/v) BSA, then incubated with 50 μg/ml propidium iodide and 50 μg/ml ribonuclease A for 20 min at room temperature. Cells were analysed for DNA content by flow cytometry using the CellQuest programme on a Becton Dickinson LSR flow cytometer.

SMILES | effect on tumour growth (H292 xenograft) | Calcusyn combination value at 50% effective dose (H292 cells; in combination with AG1478) | Calcusyn combination value at 50% effective dose (H292 cells; in combination with Erlotinib) | Calcusyn combination value at 50% effective dose (H292 cells; in combination with Gefitinib) | Calcusyn combination value at 50% effective dose (H292 cells; in combination with Lapatinib) | also measured
COc1cc2ncnc(Nc3cccc(Cl)c3)c2cc1OC [AG1478, 4-(3-chloroanilino)-6,7-dimethoxyquinazoline] | – | – | – | – | – | pIC50 (H358 cells [1]): 5.40; pIC50 (A549 cells): 5.18; pIC50 (H460 cells): 4.98; ERK phosphorylation (phospho-ERK): stimulated ERK phosphorylation at low concentrations; cyclin D1 levels (cyclin D1 [2]): very little effect; PARP cleavage (cleaved PARP): no increase in PARP cleavage; level of the EGFR (EGFR): decreased the level of the EGFR in a dose-dependent manner; EGFR phosphorylation (phospho-Tyr1068 EGFR): dose-dependent decrease
CC[C@@H](Nc1nc(NCc2cccnc2)c2ncn(C(C)C)c2n1)C(C)(C)O [[1], (3R)-3-{9-isopropyl-6-[(pyridin-3-ylmethyl)-amino]-9H-purin-2-ylamino}-2-methyl-pentan-2-ol] | minimal if any effect on tumour growth | 0.42 | 0.71 | 0.50 | 0.69 | –
CC[C@H](Nc1nc(NCc2cccnc2)c2ncn(C(C)C)c2n1)C(C)(C)O [[2], (3S)-3-{9-isopropyl-6-[(pyridin-3-ylmethyl)-amino]-9H-purin-2-ylamino}-2-methyl-pentan-2-ol] | – | 0.26 | 0.62 | 0.54 | 0.79 | –
CC[C@H](Nc1nc(NCc2cccnc2)c2ncn(C(C)C)c2n1)[C@@H](C)O [[3], (2R3S)-3-{9-isopropyl-6-[(pyridine-3-ylmethyl)-amino]-9H-purin-2-ylamino}-pentan-2-ol] | – | 0.31 | 0.68 | 0.49 | 0.76 | –
CC[C@H](Nc1nc(NCc2cnc(C)cc2C)c2ncn(C(C)C)c2n1)[C@@H](C)O [[4]] | – | 0.36 | 0.87 | 0.55 | 0.59 | Calcusyn combination value at 50% effective dose (SkBr3 cells): 0.67
C#Cc1cccc(Nc2ncnc3cc(OCCOC)c(OCCOC)cc23)c1 [erlotinib] | moderately effective | – | – | – | – | mean tumour volume (H358 xenograft): 444 mm^3; tumour growth inhibition (H358 xenograft; seliciclib 50 mg/kg ip twice daily): 44%
CC[C@H](CO)Nc1nc(NCc2ccccc2)c2ncn(C(C)C)c2n1 [seliciclib, 2-(1-R-hydroxymethylpropylamino)-6-benzylamino-9-isopropylpurine] | minimal if any effect on tumour growth | 0.38 | 0.68 | 0.53 | 0.57 | IC70 (growth inhibition) (SkBr3 cells): 20.4 µM; Calcusyn combination value at 50% effective dose (SkBr3 cells): 0.72; IC70 (growth inhibition) (MCF7 cells): 15.4 µM; HER2 levels (HER2): decreased HER2 levels in a dose-dependent manner; cyclin D1 levels (cyclin D1 [3]): significantly decreased cyclin D1 levels in a dose-dependent manner; ERK phosphorylation (phospho-ERK): no significant effect; cyclin D1 levels (cyclin D1 [2]): modest decrease; PARP cleavage (cleaved PARP): dose-dependent increase in cleaved PARP; level of the EGFR (EGFR): decreased the level of the EGFR in a dose-dependent manner; EGFR phosphorylation (phospho-Tyr1068 EGFR): limited effect; mean tumour volume (H358 xenograft): 717 mm^3; G2/M phase cells (H358 cells [4]): characteristic increase in G2/M phase cells
